How the values of data set [1] were obtained: All animals were kept with water and food ad libitum under a 12 hour light-dark cycle (light on at 6 a.m.) and at a controlled temperature (20±0.5° C.). All e experiments were performed between 10 a.m. and 5 p.m. Tested agents were injected 30 min. i.p. before the induction of convulsions if not stated otherwise (see below). All compounds were dissolved in 0.9% saline.

Another data set concerns the target NMDA receptor. Briefly: [3H]-(+)-MK-801 binding to rat cortical membranes. The following applies: for Ki: read-out: MK-801 Ki, Table 9, Cheng-Prusoff with Kd for MK-801 of […]; for IC50: read-out: [3H] MK-801 IC50, Table 7, footnote calls the values Ki. The protocol:
Male Sprague-Dawley rats (200-250 g) were decapitated and their brains were removed rapidly. The cortex was dissected and homogenized in 20 volumes of ice-cold 0.32 M sucrose using a glass-Teflon homogenizer. The homogenate was centrifuged at 1000 ×g for 10 minutes. The pellet was discarded and the supernatant centrifuged at 20,000 ×g for 20 minutes. The resulting pellet was re-suspended in 20 volumes of distilled water and centrifuged for 20 minutes at 8000 ×g. Then the supernatant and the buffy coat were centrifuged three times (48,000 ×g for 20 minutes) in the presence of 50 mM Tris-HCl, pH 8.0. All centrifugation steps were carried out at 4° C. After resuspension in 5 volumes of 50 mM Tris-HCl, pH 8.0 the membrane suspension was frozen rapidly at -80° C. On the day of assay the membranes were thawed and washed four times by resuspension in 50 mM Tris-HCl, pH 8.0 and centrifugation at 48,000 ×g for 20 minutes. The final pellet was suspended in assay buffer. The amount of protein in the final membrane preparation was determined according to the method of Lowry with some modifications. The final protein concentration used for our studies was between 250-500 μg/ml.
Membranes were re-suspended and incubated in 50 mM Tris-HCl, pH 8.0. […] Incubations were terminated using a Millipore filter system. The samples were rinsed three times with 2.5 ml ice cold assay buffer over glass fiber filters obtained from Schleicher & Schuell under a constant vacuum. Filtration was performed as rapidly as possible. Following separation and rinse, the filters were placed into scintillation liquid (5 ml; Ultima Gold) and radio activity retained on the filters was determined with a conventional liquid scintillation counter (Hewlett Packard, Liquid Scintillation Analyser).
(§1) IC50 s in patch clamp, excitotoxicity, and binding studies were calculated according to the four parameter logistic equation using the Grafit computer program (Erithacus Software, England). Ki value for binding studies were then determined according to Cheng and Prusoff. Binding values presented are means±SEM of 3-5 determinations (each performed in duplicate). […] Pearson product moment correlation analysis (Sigma Stat, Jandel Scientific) was used to compare in vitro potencies and in vivo anticonvulsant activity.

A further data set relates to cortical neurones. In words: Excitotoxicity: glutamate toxicity in cultured cortical neurones (MTT). Type of data set: cell-based, rat. To be noted: Rattus norvegicus, Cortical neurone. On the procedure:
Cortical neurones were obtained from cerebral cortices of 17/18 day old fetal rats (Wistar), in general following the dissociation procedure described by. After short trypsinization and gentle trituration with fire-polished Pasteur pipettes, the cell suspension was washed by centrifugation. Cells were suspended in serum-free Neurobasal medium with B27 supplement (GIBCO) before plating onto poly-L-lysine (Sigma; 0.2 mg/ml, 20 h, 4° C.) and laminin (Sigma; 2 μg/ml, 1 h, 37° C.)-coated 96-well plates (Falcon, Primaria) at a density of 5×10^4 cells/well. Cortical neurones were maintained at 37° C. in humidified 10% CO2 /90% air. […] The medium was changed first after 4 days in vitro and then every 4 days by replacing 2/3 of the medium with astrocyte-conditioned medium. Cortical neurones between day 12 and 14 in culture were used for the experiments.
New-born rat astrocytes were isolated non-enzymatically according to the method of [24]. Briefly, both hemispheres were dissected from 2-day-old rats, passed through an 80 μm gauze, and triturated with Pasteur pipettes. Cell suspension was made in Dulbecco's modified essential medium (DMEM, Gibco) supplemented with 10% fetal calf serum (FCS, Hyclone), 2 mM glutamine (Gibco) and 50 μg/ml gentamycin and transferred into untreated, plastic culture flasks (Corning; […]). Two days after plating the flasks were shaken for 10 minutes on a rotary platform (150 U/min) to remove microglial cells. The cultures were grown to confluency within 14 days, and the culture medium was changed twice weekly. Thereafter, the glial monolayers were extensively washed with serum-free Neurobasal medium (Gibco) to remove the serum. Flasks were then shaken several times to remove oligodendrocytes and neurones. To obtain conditioned medium from primary astrocytes, the cultures were incubated with fresh Neurobasal medium supplemented with B27 andglutamine. Every 2-3 days the conditioned medium was collected and replaced by fresh medium up to 4 times.
Exposure to EAA was performed in serum-free Neurobasal medium containing 100 μM glutamate and the drug to be tested. After 20 h of incubation, the cytotoxic effect was morphologically examined under a phase contrast microscope and biochemically quantified by measuring cell viability with the MTT test (Promega). This calorimetric assay measures the reduction of a tetrazolium component (MTT) into an insoluble formazan product by the mitochondria of living cells. After incubation of the cortical neurones with the dye solution for approximately 1-4 hours, a solubilization solution was added to lyse the cells and solubilize the colored product (incubation overnight at 37° C., 10% CO2, 90% RH). These samples were then read using an Elisa plate reader (Thermomax, MWG Biotech) at a wavelength of 570 nm. The amount of color produced was directly proportional to the number of viable cells.
as §1

Where [2] appears, read: Table 7, 100 μM glutamate, 20 h, read-out: Glut. Tox. IC50.
[3] abbreviates: Table 9, 100 μM glutamate, read-out: Glut Tox IC50.
[4] abbreviates: 20 h, read-out: Glut. Tox. IC50.

Here are results for 15 compounds from US6034134A, “1-Amino-alkylcyclohexane NMDA receptor antagonists” (Merz + Co. GmbH & Co., priority 1998, dated 2000).

Structures are written as SMILES. Counter-ions that a name gives are not always drawn. Like-named read-outs stand apart in the source and are kept apart here.

In general, Ki refers to the equilibrium dissociation constant of an inhibitor or competing ligand from its target. Broadly, the IC50 is the concentration that inhibits the measured activity by half.

On to `CCC[C@@H]1CC(C)(C)C[C@](C)(N)C1` (relative stereo) [Mrz 2/634], for which the “Min Lethality” value in data set [1] (i.p., minimal lethal dose) is given as more than 30 mg/kg. On NMDA receptor, the inhibitory constant (Ki) came to 13.4 µM. The 50% inhibitory concentration (IC50) on NMDA receptor was found to be 15.5 µM; with cortical neurones (setting [2]) it was 19 µM; with cortical neurones (setting [3]), 19 µM.

Consider `C[C@@H]1C[C@H](C)C[C@](C)(N)C1` [MRZ 2/681, 1,cis-3,cis-5-Trimethylcyclohexylamine hydrochloride hydrate], for which, in data set [1] (mouse, in vivo, ip), the “Min Lethality” value is more than 50 mg/kg. On NMDA receptor, the Ki turned out to be 19.2 µM. Further, in the data set with cortical neurones (setting [3]), the IC50 came to 26.9 µM.

Take `CC1(N)CCCCC1` [Mrz 2/641]: the “Min Lethality” value in data set [1] (i.p., minimal lethal dose) is reported as more than 50 mg/kg. Further, the Ki on NMDA receptor was determined as 143 µM. The IC50 was 184 µM at NMDA receptor, more than 100 µM in the data set on cortical neurones (setting [2]) and more than 100 µM in the data set with cortical neurones (setting [3]).

Consider `CC1(C)CC(CN)CC(C)(C)C1.Cl` [Mrz 2/580, 3,3,5,5-tetramethylcyclohexylmethylamine hydrochloride], for which the “Min Lethality” value in data set [1] (i.p., minimal lethal dose) was 50 mg/kg. Besides, the Ki at NMDA receptor worked out at 17.8 µM. In addition, the IC50 at NMDA receptor came out at 15.9 µM; with cortical neurones (setting [2]) it was 5.6 µM; with cortical neurones (setting [3]), 5.6 µM.

Regarding `CC1(C)CCCC(C)(N)C1` (stereo not drawn) [Mrz 2/621], the “Min Lethality” value in data set [1] (i.p., minimal lethal dose) was more than 60 mg/kg. In addition, the inhibitory constant (Ki) on NMDA receptor was 32.2 µM. The IC50 on NMDA receptor is 36.7 µM; in the data set with cortical neurones (setting [4]) it was more than 100 µM; with cortical neurones (read-out: Glut Tox IC50), more than 100 µM.

For the compound `CCC[C@@H]1CCC[C@@](C)(N)C1` (relative stereo) [Mrz 2/627], the “Min Lethality” value in data set [1] (mouse, in vivo, ip) is on record as 60 mg/kg. Also, the Ki on NMDA receptor was found to be 71 µM. Further, the 50% inhibitory concentration (IC50) at NMDA receptor is 70.3 µM; in the data set on cortical neurones (setting [2]), 26.6 µM; in the data set on cortical neurones (setting [3]) it was 26.6 µM.

`CCC1(C)CC(C)(C)CC(C)(N)C1` (stereo not drawn) [Mrz 2/615, 1-amino-1,3,5,5-tetramethyl-3-ethylcyclohexane]: in data set [1] (i.p., minimal lethal dose), the “Min Lethality” value is recorded as more than 50 mg/kg. For the same compound, the Ki on NMDA receptor was 2.42 µM. In addition, the IC50 on NMDA receptor is 2.5 µM; in the data set with cortical neurones (setting [2]) it was 2.3 µM; in the data set with cortical neurones (setting [3]), 2.29 µM.

Consider `CC[C@H]1CC(C)(C)C[C@@](C)(N)C1` [MRZ 2/683, (1S, 5S) cis-3-Ethyl-1,5,5-trimethylcyclohexylamine hydrochloride hydrate], for which the “Min Lethality” value in data set [1] (mouse, in vivo, ip) is more than 50 mg/kg. Moreover, the Ki on NMDA receptor stood at 4.44 µM. In the data set with cortical neurones (setting [3]), the half-maximal inhibitory concentration (IC50) stood at 5.08 µM.

In the case of `CCCC1(C)CCCC(C)(N)C1` (stereo not drawn) [Mrz 2/617], the “Min Lethality” value in data set [1] (mouse, in vivo, ip) is reported as more than 50 mg/kg. In addition, the Ki at NMDA receptor was 38 µM. For the same compound, the figures for the IC50 at NMDA receptor, in the data set on cortical neurones (setting [2]) and in the data set on cortical neurones (setting [3]) were 51.8 µM, more than 70 µM and more than 70 µM, respectively.

Consider `C[C@@H]1CCC[C@@](C)(N)C1` (relative stereo) [Mrz 2/625], for which the “Min Lethality” value in data set [1] (mouse, in vivo, ip) is given as more than 70 mg/kg. Further, the Ki on NMDA receptor was 52.6 µM. The results for the IC50 at NMDA receptor, with cortical neurones (setting [2]) and in the data set on cortical neurones (setting [3]) were 46.8 µM, 39.4 µM and 39.4 µM, respectively.

With `CC1(C)CC(N)CC(C)(C)C1` [Mrz 2/557], in data set [1] (mouse, in vivo, ip), the “Min Lethality” value is more than 70 mg/kg. For the same compound, the inhibitory constant (Ki) at NMDA receptor amounted to 19.9 µM. Also, the IC50 at NMDA receptor is 17.6 µM; with cortical neurones (setting [2]) it was 6.7 µM; in the data set on cortical neurones (setting [3]) it was 6.7 µM.

In the case of `CC[C@@H]1CC(C)(C)C[C@@](C)(N)C1` (relative stereo) [Mrz 2/633], the “Min Lethality” value in data set [1] (mouse, in vivo, ip) is recorded as 108 mg/kg. Moreover, the inhibitory constant (Ki) at NMDA receptor stood at 5.18 µM. For the same compound, the IC50 was determined as 6.8 µM at NMDA receptor, 5.4 µM with cortical neurones (setting [2]) and 6.1 µM with cortical neurones (setting [3]).

Take `CCC[C@@H]1CC(C)(C)C[C@@](C)(N)C1` (relative stereo) [Mrz 2/635]: the “Min Lethality” value in data set [1] (mouse, in vivo, ip) is on record as more than 50 mg/kg. For the same compound, the Ki on NMDA receptor is 15 µM. The IC50 at NMDA receptor was found to be 7.8 µM; in the data set with cortical neurones (setting [2]) it was 8.2 µM; in the data set on cortical neurones (setting [3]), 8.18 µM.

Consider `CN(C)C1(C)CC(C)(C)CC(C)(C)C1` [Mrz 2/642], for which, at NMDA receptor, the Ki is 12.7 µM. For the same compound, the values for the IC50 at NMDA receptor, in the data set on cortical neurones (setting [4]) and in the data set on cortical neurones (read-out: Glut Tox IC50) were 10.2 µM, 29.3 µM and 29.3 µM, respectively.

Take `CC(C)(N)CC1CC(C)(C)CC(C)(C)C1` [Mrz 2/645]: the Ki on NMDA receptor turned out to be 60.2 µM. In addition, the IC50 at NMDA receptor was 85.1 µM; in the data set on cortical neurones (setting [2]), more than 100 µM; in the data set on cortical neurones (setting [3]), more than 100 µM.
